Reference: patent publication US4575560A, “Insecticidal diaminoguanidine hydrazone compounds” (American Cyanamid Company, priority 1985, dated 1986)

Experiments:
[1] = system: Tobacco Budworm 3rd Instar; assay: Tobacco budworm secondary test, third-instar larvae on treated cotton cotyledons; assay type: in vivo, Heliothis virescens (Fabricus)
Southern Armyworm = assay: Southern armyworm test, third-instar larvae on treated Sieva lima bean leaves; assay type: in vivo, Spodoptera eridania (Cramer); settings: third-instar larvae
Description: Test formulations and procedures used for evaluation are as follows:
A. 100 mg of the test material is weighed, placed in a funnel over a 113 g narrow-mouth bottle, rinsed into the bottle with a 35 mL scoop of acetone, followed by a 35 mL scoop of water and another 35 mL scoop of acetone to yield 1000 ppm in 65% acetone. If the material is not soluble, it is broken up with a glass rod and used as a suspension.
B. This stock solution ("A") is used to make 300 ppm solutions or suspensions by pipetting 30 mL of "A" into a bottle containing 70 mL of 50% acetone to yield 300 ppm. Further dilutions in 50% acetone are made as required.
C. Tests requiring 10 ppm acetone solutions: 1 mL of "A" is pipetted into 99 mL of acetone to yield 10 ppm. Additional dilutions are made using 50% acetone as required.
Southern Armyworm--Spodoptera eridania (Cramer)
A Sieva lima bean plant with just the primary leaves expanded to 1.91 cm is dipped for three seconds with agitation in the "A" solution of 1000 ppm and set in the hood to dry. Following this, one leaf is placed in a 9 cm petri dish which has a moist filter paper in the bottom and 10 third-instar armyworm larvae about 1 cm long. This dish is covered and held at 80° F., and 50% r.h. After two days, mortality counts and estimates of the amount of feeding are made. Compounds showing partial kill and/or inhibition of feeding are held for an extra day for further observations.
All compounds showing activity as defined above are retested, using the second leaf on the bean plant, after an interval of seven days from original treatment, as an assay of residual activity.

## N=C(NN=Cc1ccc(Br)cc1)NN=Cc1ccc(OC(F)(F)C(F)F)cc1 [Br / HCF2 CF2 O / B]
[1]; 1000 ppm
  Mortality Rating Tobacco Budworm 3rd Instar: 0 (No effect)
  reduced feeding (R) Tobacco Budworm 3rd Instar: R
Southern Armyworm; 100 ppm
  Mortality Rating Southern Armyworm: 9 (100%)
Southern Armyworm; 1000 ppm
  Mortality Rating Southern Armyworm: 9 (100%)

## N=C(NN=Cc1ccc(Br)cc1)NN=Cc1ccc(C(F)(F)F)cc1 [CF3 / Br / B]
[1]; 1000 ppm
  Mortality Rating Tobacco Budworm 3rd Instar: 0 (No effect)
  reduced feeding (R) Tobacco Budworm 3rd Instar: R
Southern Armyworm; 10 ppm
  Mortality Rating Southern Armyworm: 9 (100%)
Southern Armyworm; 100 ppm
  Mortality Rating Southern Armyworm: 9 (100%)
Southern Armyworm; 1000 ppm
  Mortality Rating Southern Armyworm: 9 (100%)

## N=C(NN=Cc1ccc(Br)cc1)NN=Cc1ccc(C(F)(F)F)cc1 [CF3 / Br / S]
[1]; 100 ppm
  Mortality Rating Tobacco Budworm 3rd Instar: 0 (No effect)
  reduced feeding (R) Tobacco Budworm 3rd Instar: R
[1]; 1000 ppm
  Mortality Rating Tobacco Budworm 3rd Instar: 0 (No effect)
  reduced feeding (R) Tobacco Budworm 3rd Instar: R
Southern Armyworm; 10 ppm
  Mortality Rating Southern Armyworm: 0 (No effect)
Southern Armyworm; 1000 ppm
  Mortality Rating Southern Armyworm: 9 (100%)

## CCCOC(=O)N(N=Cc1ccc(C(F)(F)F)cc1)C(=N)NN=Cc1ccc(C(F)(F)F)cc1 [CF3 / CF3 / -n-C3 H7]
[1]; 1000 ppm
  Mortality Rating Tobacco Budworm 3rd Instar: 0 (No effect)
Southern Armyworm; 10 ppm
  Mortality Rating Southern Armyworm: 4 (46-55%)
Southern Armyworm; 100 ppm
  Mortality Rating Southern Armyworm: 9 (100%)
Southern Armyworm; 1000 ppm
  Mortality Rating Southern Armyworm: 9 (100%)

## CCCCOC(=O)N(N=Cc1ccc(C(F)(F)F)cc1)C(=N)NN=Cc1ccc(C(F)(F)F)cc1 [CF3 / CF3 / -n-C4 H9]
[1]; 1000 ppm
  Mortality Rating Tobacco Budworm 3rd Instar: 0 (No effect)
Southern Armyworm; 100 ppm
  Mortality Rating Southern Armyworm: 0 (No effect)
Southern Armyworm; 1000 ppm
  Mortality Rating Southern Armyworm: 9 (100%)

## N=C(NN=Cc1ccc(C(F)(F)F)cc1)N(N=Cc1ccc(C(F)(F)F)cc1)C(=O)OCCBr [CF3 / CF3 / BrCH2 CH2]
[1]; 1000 ppm
  Mortality Rating Tobacco Budworm 3rd Instar: 0 (No effect)
Southern Armyworm; 10 ppm
  Mortality Rating Southern Armyworm: 0 (No effect)
Southern Armyworm; 100 ppm
  Mortality Rating Southern Armyworm: 0 (No effect)
Southern Armyworm; 1000 ppm
  Mortality Rating Southern Armyworm: 9 (100%)

## CCOC(=O)N(N=Cc1ccc(C(F)(F)F)cc1)C(=N)NN=Cc1ccc(C(F)(F)F)cc1 [CF3 / CF3 / C2 H5, 3-[p-(trifluoromethyl)benzylidene]-2-{{[p-(trifluoromethyl)benzylidene]amino}amidino}carbazate]
Southern Armyworm; 10 ppm
  Mortality Rating Southern Armyworm: 9 (100%)
Southern Armyworm; 100 ppm
  Mortality Rating Southern Armyworm: 7 (76-85%)
Southern Armyworm; 1000 ppm
  Mortality Rating Southern Armyworm: 9 (100%)

## C=CCOC(=O)N(N=Cc1ccc(C(F)(F)F)cc1)C(=N)NN=Cc1ccc(C(F)(F)F)cc1 [CF3 / CF3 / CH2CHCH2]
[1]; 100 ppm
  Mortality Rating Tobacco Budworm 3rd Instar: 0 (No effect)
[1]; 1000 ppm
  Mortality Rating Tobacco Budworm 3rd Instar: 0 (No effect)
  reduced feeding (R) Tobacco Budworm 3rd Instar: R
Southern Armyworm; 10 ppm
  Mortality Rating Southern Armyworm: 0 (No effect)
Southern Armyworm; 100 ppm
  Mortality Rating Southern Armyworm: 9 (100%)
Southern Armyworm; 1000 ppm
  Mortality Rating Southern Armyworm: 9 (100%)

## COC(=O)N(N=Cc1ccc(C(F)(F)F)cc1)C(=N)NN=Cc1ccc(C(F)(F)F)cc1 [CF3 / CF3 / CH3]
[1]; 1000 ppm
  Mortality Rating Tobacco Budworm 3rd Instar: 6 (66-75%)
Southern Armyworm; 10 ppm
  Mortality Rating Southern Armyworm: 3 (36-45%)
Southern Armyworm; 100 ppm
  Mortality Rating Southern Armyworm: 9 (100%)
Southern Armyworm; 1000 ppm
  Mortality Rating Southern Armyworm: 9 (100%)

## CC(C)(OC(=O)N(N=Cc1ccc(C(F)(F)F)cc1)C(=N)NN=Cc1ccc(C(F)(F)F)cc1)C(Cl)(Cl)Cl [CF3 / CF3 / Cl3 CC(CH3)2]
[1]; 10 ppm
  Mortality Rating Tobacco Budworm 3rd Instar: 0 (No effect)
[1]; 100 ppm
  Mortality Rating Tobacco Budworm 3rd Instar: 0 (No effect)
  reduced feeding (R) Tobacco Budworm 3rd Instar: R
[1]; 1000 ppm
  Mortality Rating Tobacco Budworm 3rd Instar: 9 (100%)
Southern Armyworm; 10 ppm
  Mortality Rating Southern Armyworm: 0 (No effect)
Southern Armyworm; 100 ppm
  Mortality Rating Southern Armyworm: 9 (100%)
Southern Armyworm; 1000 ppm
  Mortality Rating Southern Armyworm: 9 (100%)

## N=C(NN=Cc1ccc(C(F)(F)F)cc1)N(N=Cc1ccc(C(F)(F)F)cc1)C(=O)OCC(Cl)(Cl)Cl [CF3 / CF3 / Cl3 CCH2]
[1]; 10 ppm
  Mortality Rating Tobacco Budworm 3rd Instar: 0 (No effect)
[1]; 100 ppm
  Mortality Rating Tobacco Budworm 3rd Instar: 0 (No effect)
  reduced feeding (R) Tobacco Budworm 3rd Instar: R
[1]; 1000 ppm
  Mortality Rating Tobacco Budworm 3rd Instar: 8 (86-99%)
Southern Armyworm; 10 ppm
  Mortality Rating Southern Armyworm: 8 (86-99%)
Southern Armyworm; 100 ppm
  Mortality Rating Southern Armyworm: 9 (100%)
Southern Armyworm; 1000 ppm
  Mortality Rating Southern Armyworm: 9 (100%)

## N=C(NN=Cc1ccc(C(F)(F)F)cc1)N(N=Cc1ccc(C(F)(F)F)cc1)C(=O)OCCCl [CF3 / CF3 / ClCH2 CH2, 3-[p-(trifluoromethyl)benzylidene]-2-{{[p-(trifluoromethyl)benzylidene]amino}amidino}carbazate ester]
[1]; 100 ppm
  Mortality Rating Tobacco Budworm 3rd Instar: 0 (No effect)
[1]; 1000 ppm
  Mortality Rating Tobacco Budworm 3rd Instar: 2 (26-35%)
  reduced feeding (R) Tobacco Budworm 3rd Instar: R
Southern Armyworm; 10 ppm
  Mortality Rating Southern Armyworm: 8 (86-99%)
Southern Armyworm; 100 ppm
  Mortality Rating Southern Armyworm: 9 (100%)
Southern Armyworm; 1000 ppm
  Mortality Rating Southern Armyworm: 9 (100%)

## CCC(C)OC(=O)N(N=Cc1ccc(C(F)(F)F)cc1)C(=N)NN=Cc1ccc(C(F)(F)F)cc1 (stereo not drawn) [CF3 / CF3 / drawing 54]
[1]; 100 ppm
  Mortality Rating Tobacco Budworm 3rd Instar: 0 (No effect)
  reduced feeding (R) Tobacco Budworm 3rd Instar: R
[1]; 1000 ppm
  Mortality Rating Tobacco Budworm 3rd Instar: 6 (66-75%)
  reduced feeding (R) Tobacco Budworm 3rd Instar: R
Southern Armyworm; 10 ppm
  Mortality Rating Southern Armyworm: 6 (66-75%)
Southern Armyworm; 100 ppm
  Mortality Rating Southern Armyworm: 9 (100%)
Southern Armyworm; 1000 ppm
  Mortality Rating Southern Armyworm: 9 (100%)
